Test results from PubChem BioAssay (NCI).
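Interpolation was linear, between the two tested concentrations surrounding the appropriate level; five concentrations were tested over 48 hours in 96-well plates. TGI: concentration producing complete growth inhibition.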

Tests used:
Experiment in all cases: NCI-60 cell line screen, 48 h
UACC-62 melanoma = system: UACC-62 melanoma
NCI-H226 lung = system: NCI-H226 lung
OVCAR-8 ovarian = system: OVCAR-8 ovarian
CAKI-1 renal = system: CAKI-1 renal
RXF 393 renal = system: RXF 393 renal
HOP-62 NSCLC = system: HOP-62 NSCLC
OVCAR-3 ovarian = system: OVCAR-3 ovarian
786-0 renal = system: 786-0 renal
MALME-3M melanoma = system: MALME-3M melanoma
COLO 205 colon = system: COLO 205 colon
UACC-257 melanoma = system: UACC-257 melanoma
MDA-MB-435 = system: MDA-MB-435
MDA-MB-231 breast = system: MDA-MB-231 breast

Row | SMILES | TGI (UACC-62 melanoma) [µM] | TGI (NCI-H226 lung) [µM] | TGI (OVCAR-8 ovarian) [µM] | TGI (CAKI-1 renal) [µM] | TGI (RXF 393 renal) [µM] | TGI (HOP-62 NSCLC) [µM] | TGI (OVCAR-3 ovarian) [µM] | TGI (786-0 renal) [µM] | TGI (MALME-3M melanoma) [µM] | TGI (COLO 205 colon) [µM] | TGI (UACC-257 melanoma) [µM] | TGI (MDA-MB-435) [µM] | TGI (MDA-MB-231 breast) [µM]
1 | NC1=NC2(O)c3ccccc3C(=O)C2(O)N1 (configuration not stated) | > 100 | > 100 | > 100 | > 100 | > 100 | > 100 | > 100 | > 100 | > 100 | > 100 | > 100 | – | –
2 | O=c1oc2cc(O)ccc2c(O)c1C(c1ccccn1)c1c(O)c2ccc(O)cc2oc1=O | > 100 | > 100 | > 100 | > 100 | > 100 | > 100 | > 100 | > 100 | – | > 100 | > 100 | > 100 | > 100
3 | COc1ccc(C2CC(=O)Oc3ccccc3O2)cc1 (configuration not stated) | > 100 | > 100 | > 100 | – | > 100 | > 100 | > 100 | > 100 | – | > 100 | > 100 | > 100 | > 100
4 | CC(NC(=O)/C(C#N)=C/c1ccc2[nH]ccc2c1)c1ccccc1 (configuration not stated) | 31.8 | 53.8 | 48.8 | 66 | 34.5 | 33.4 | 58 | 31.8 | 71.2 | 30.7 | 38.7 | 31.1 | –
5 | COC(=O)C(/C(=N/N)C(=O)Nc1cc(Cl)c(Cl)cc1Cl)c1nc2ccc(Cl)cc2[nH]c1=O (configuration not stated) | > 100 | > 100 | > 100 | > 100 | > 100 | > 100 | > 100 | > 100 | > 100 | – | > 100 | > 100 | > 100
6 | CN1CC2=C(NC(=S)NC2c2ccc(Cl)cc2)/C(=C/c2ccc(Cl)cc2)C1 (configuration not stated) | 33.8 | – | 37.8 | 32.4 | – | 36.4 | 29.3 | 52.3 | 36.8 | 33.3 | 43.2 | 30.1 | 39.8
7 | O=C1C(Cl)C(c2ccc(Cl)cc2)N1n1cnc2ccccc2c1=O (configuration not stated) | > 100 | > 100 | > 100 | > 100 | > 100 | > 100 | > 100 | > 100 | > 100 | > 100 | > 100 | – | –
8 | CCCC(=O)N/S(=N/S(=O)(=O)c1ccc(Cl)cc1)C(Cl)(Cl)Cl (configuration not stated) | > 100 | > 100 | > 100 | – | > 100 | > 100 | > 100 | > 100 | > 100 | – | – | > 100 | > 100
9 | O=C(O)c1cc(-c2ccccc2O)nc2ccccc12 | > 100 | – | > 100 | > 100 | – | > 100 | > 100 | > 100 | > 100 | > 100 | > 100 | – | –
10 | CCOC(OCC)c1ccc(/C=C/c2cc(OC)c(OC)c(OC)c2)cc1 | 33.2 | 62.5 | 76.3 | 74.3 | 40.9 | 56.6 | 38 | 60.1 | 43.8 | 33.5 | 51.2 | – | –
11 | C#CCCOC1(OC)N=NC(C)(C)O1 (configuration not stated) | > 100 | > 100 | > 100 | – | > 100 | > 100 | > 100 | > 100 | > 100 | > 100 | > 100 | > 100 | > 100
12 | COc1cccc(/C(C=O)=C(\Cl)c2ccc(OC)c(OC)c2)c1 | 17.4 | 28.1 | 30.3 | 45.1 | 25.1 | 25.1 | 30.2 | 30.7 | 29 | 27.5 | 29.3 | – | –
13 | O=C(/C=C/c1c(O)ccc2ccccc12)c1cccc2ccccc12 | > 100 | > 100 | > 100 | > 100 | > 100 | > 100 | > 100 | > 100 | > 100 | > 100 | > 100 | – | –
14 | O=c1cc(NCC2CCCCC2)[nH]c(=O)[nH]1 | – | > 100 | > 100 | – | > 100 | > 100 | > 100 | > 100 | > 100 | > 100 | > 100 | > 100 | > 100
15 | COc1ccc(OC)c(NC(=O)C(=O)Nn2c(=S)[nH]c3ccccc3c2=O)c1 | > 100 | > 100 | > 100 | > 100 | > 100 | > 100 | > 100 | > 100 | > 100 | – | > 100 | > 100 | > 100
16 | CO/C(=N\N=C\c1ccc(OC)cc1OC)c1ccncc1 | – | > 10 | > 10 | – | > 10 | > 10 | – | > 10 | > 10 | > 10 | – | – | –
17 | CCOC(=O)c1nc2ccc(Cl)cc2c2c1CCO2 | > 100 | > 100 | > 100 | > 100 | > 100 | > 100 | > 100 | > 100 | > 100 | > 100 | > 100 | – | –
18 | NC(=O)C(=CN1C(=O)CC(=O)NC1=S)C(N)=O | – | > 100 | > 100 | > 100 | > 100 | > 100 | > 100 | > 100 | – | > 100 | > 100 | > 100 | > 100
19 | Cc1cc(NC(=O)C(=O)Cc2cnc3ccccc3n2)c(S(=O)(=O)O)cc1Cl | > 100 | > 100 | > 100 | > 100 | – | – | > 100 | > 100 | > 100 | > 100 | > 100 | > 100 | > 100
